In brackets after ≈: the same amount, converted by molar mass. Activity calls are given as the source filed them. The rule behind the calls is not given here.

Data set [1] deals with HeLa. The data set can be described thus: Antiproliferative activity against human HeLa cells assessed as reduction in cell viability measured at 24 hrs by MTT assay. Format: functional, cell-based. On the technique in general: Tetrazolium assays rely on reduction of a dye to a coloured formazan, in cell work by metabolically active cells.
Data set [2] deals with HeLa. The experiment in a line: Antiproliferative activity against human HeLa cells assessed as reduction in cell viability measured at 48 hrs by MTT assay. In kind it is functional, cell-based.
The test system of a further data set is HDFa. The experiment in a line: Antiproliferative activity against human HDFa cells assessed as reduction in cell viability measured at 48 hrs by MTT assay. In kind it is functional, cell-based.
A short description of data set [3]: Half life in human liver microsomes. In kind it is ADME, Microsome. For orientation: Microsomes from liver hold many membrane-bound enzymes, among them those of drug oxidation.
Data set [4] is described as follows: Aqueous solubility of compound in PBS at pH 7.4. In kind it is physicochemical.
Data set [5] in a line: Aqueous solubility of the compound in simulated gastric fluid. In kind it is ADME.
Data set [6] is described as follows: Aqueous solubility of the compound in simulated intestinal fluid. In kind it is ADME.
Data set [7] in a line: Permeability across apical to basolateral side in human Caco-2 cells. In kind it is ADME, cell-based. The settings on record: read-out: permeability. (Caco-2 monolayers are a common model of the intestinal barrier.)
A short description of data set [8]: Permeability across basolateral to apical side in human Caco-2 cells. In kind it is ADME, cell-based. The note with it: read-out: permeability.
The nature of data set [9]: Lipophilicity, logD of the compound. The note with it: octanol/water. In kind it is physicochemical.
The nature of data set [10]: Plasma protein binding in human relative to control. Format: ADME, cell-free. The note with it: read-out: PPB (converted).
Data set [11] in a line: Drug recovery in human plasma relative to control. Format: ADME, cell-free.
The next data set concerns the target T1, CYP2C8 (Homo sapiens, UniProt P10632).
T1 sequence (P10632 whole entry): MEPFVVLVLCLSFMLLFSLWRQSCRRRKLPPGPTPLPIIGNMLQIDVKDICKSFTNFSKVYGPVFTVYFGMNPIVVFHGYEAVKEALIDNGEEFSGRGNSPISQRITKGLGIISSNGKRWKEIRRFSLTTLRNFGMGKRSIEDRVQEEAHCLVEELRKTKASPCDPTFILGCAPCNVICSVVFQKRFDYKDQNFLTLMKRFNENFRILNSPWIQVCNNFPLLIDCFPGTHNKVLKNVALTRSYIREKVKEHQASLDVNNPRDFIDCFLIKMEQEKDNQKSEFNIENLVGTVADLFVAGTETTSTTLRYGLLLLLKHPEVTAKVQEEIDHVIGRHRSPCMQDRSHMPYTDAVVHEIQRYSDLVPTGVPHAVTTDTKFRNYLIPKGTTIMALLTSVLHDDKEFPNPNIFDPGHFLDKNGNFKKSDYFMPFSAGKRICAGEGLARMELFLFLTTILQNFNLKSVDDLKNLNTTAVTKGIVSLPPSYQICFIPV
The experiment in a line: Inhibition of CYP2C8 in human liver microsomes at 10 uM relative to control. Format: ADME, Microsome.

The target of another data set is CYP2C9 (Homo sapiens, UniProt P11712). The data set can be described thus: Inhibition of CYP2C9 in human liver microsomes at 10 uM relative to control. Format: ADME, Microsome.
The next data set has as its target CYP2C19 (Homo sapiens, UniProt P33261). The data set can be described thus: Inhibition of CYP2C19 in human liver microsomes at 10 uM relative to control. Format: ADME, Microsome.
For another data set, the target named is CYP3A (Homo sapiens, UniProt P08684+P20815+P24462+Q9HB55). The experiment in a line: Inhibition of CYP3A in human liver microsomes at 10 uM relative to control. In kind it is ADME, Microsome.
Another data set concerns the target Cytochrome P450 2C19 (Homo sapiens, UniProt P33261). The experiment in a line: Inhibition of CYP2C19 in human liver microsomes. Format: ADME, Microsome.
Another data set concerns the target Cytochrome P450 2C9 (Homo sapiens, UniProt P11712). The data set can be described thus: Inhibition of CYP2C9 in human liver microsomes. In kind it is ADME, Microsome.
For a further data set, the target named is T2, Cytochrome P450 2C8 (Homo sapiens, UniProt P10632).
T2 sequence (P10632 whole entry): T1 sequence (P10632 whole entry)
The data set can be described thus: Inhibition of CYP2C8 in human liver microsomes. In kind it is ADME, Microsome.

The nature of data set [12]: Toxicity in nude mouse xenografted with human MCF7 cells assessed as side effects at 400 mg/kg, po. The settings on record: in vivo. In kind it is organism-based.

Sequence of CYP2C19 (P33261 whole entry): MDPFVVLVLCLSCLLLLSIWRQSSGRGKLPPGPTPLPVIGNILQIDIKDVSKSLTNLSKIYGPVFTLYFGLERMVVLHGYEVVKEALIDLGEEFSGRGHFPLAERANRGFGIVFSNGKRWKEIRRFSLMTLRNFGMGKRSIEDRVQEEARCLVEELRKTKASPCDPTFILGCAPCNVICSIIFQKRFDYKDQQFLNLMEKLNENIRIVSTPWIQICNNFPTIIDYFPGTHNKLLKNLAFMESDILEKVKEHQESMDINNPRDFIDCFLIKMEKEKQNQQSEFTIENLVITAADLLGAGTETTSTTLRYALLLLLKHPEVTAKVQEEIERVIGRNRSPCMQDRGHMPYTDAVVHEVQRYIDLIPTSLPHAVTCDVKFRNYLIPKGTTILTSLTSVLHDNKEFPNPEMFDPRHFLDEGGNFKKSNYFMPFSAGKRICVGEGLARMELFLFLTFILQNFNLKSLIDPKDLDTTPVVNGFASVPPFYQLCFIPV
Sequence of CYP2C9 (P11712 whole entry): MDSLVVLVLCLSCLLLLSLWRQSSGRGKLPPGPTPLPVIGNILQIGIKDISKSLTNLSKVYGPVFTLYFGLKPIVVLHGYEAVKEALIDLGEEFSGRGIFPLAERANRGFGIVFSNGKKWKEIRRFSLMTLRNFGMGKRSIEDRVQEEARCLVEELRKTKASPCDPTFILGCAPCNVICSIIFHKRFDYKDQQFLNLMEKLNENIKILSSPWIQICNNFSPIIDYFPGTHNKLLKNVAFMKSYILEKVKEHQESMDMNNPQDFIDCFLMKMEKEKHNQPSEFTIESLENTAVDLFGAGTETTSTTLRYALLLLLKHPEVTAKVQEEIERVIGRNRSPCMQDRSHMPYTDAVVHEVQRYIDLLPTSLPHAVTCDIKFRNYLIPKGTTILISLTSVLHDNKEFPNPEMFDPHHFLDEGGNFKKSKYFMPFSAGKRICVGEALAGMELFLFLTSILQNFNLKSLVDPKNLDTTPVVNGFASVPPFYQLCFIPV
Sequence of Cytochrome P450 2C9 (P11712 whole entry): as above
Sequence of Cytochrome P450 2C19 (P33261 whole entry): as the sequence (P33261 whole entry) above

As usually defined, the IC50 is the midpoint of a concentration-inhibition curve. In the case of `CC(=O)c1c(O)c(C)c(O)c2c1O[C@@H]1Cc3n[nH]c(C)c3[C@H](O)[C@]21C`, the IC50 in the data set on HeLa [1] and in the data set on HeLa [2] was over 15 µM throughout.
In the case of `CC(=O)c1c(O)c(C)c(O)c2c1OC1=CC(O)=C(/C(C)=N/N)C(=O)[C@@]12C`, the IC50 with HeLa [1] and in the data set with HeLa [2] was over 15 µM throughout.
Take `CC(C)=N/N=C(\C)c1c(O)c(C)c(O)c2c1OC1=CC(=O)c3c(n[nH]c3C)[C@@]12C`: the IC50 was over 15 µM with HeLa [1] and 8.65 µM with HeLa [2].
In the case of `CC(=O)c1c(O)c(C)c(O)c2c1OC1=CC(=O)c3c(nn(C)c3C)[C@@]12C`, the IC50 in the data set on HeLa [1] is 0.928 µM; in the data set on HeLa [2], 0.116 µM. Moreover, the outcome with HDFa was inactive.
`CC(=O)c1c(O)c(C)c(O)c2c1OC1=CC(=O)c3c(C)noc3[C@@]12C`: the half-maximal inhibitory concentration (IC50) in the data set with HeLa [1] and with HeLa [2] was over 15 µM throughout.
With `CCn1nc(C)c2c1C=C1Oc3c(C(C)=O)c(O)c(C)c(O)c3[C@@]1(C)C2=O`, the figures for the IC50 with HeLa [1] and with HeLa [2] were over 15 µM and 11 µM, respectively.
One may read the half-life as how long it takes for the measured level to halve. The low end stands for rapid decline, the high end for slow decline. What is called solubility is the dissolved amount per volume that the medium holds. What is called logD is the decadic logarithm of the distribution of all forms, ionised or not, between an organic phase and buffer at a given pH. Lower therefore signals a more hydrophilic compound. One may read the inhibition as the relative decrease from the control value, in per cent. Low readings indicate little suppression, high ones strong suppression. As to `CC(=O)c1c(O)c(C)c(O)c2c1OC1=CC(=O)c3c(n[nH]c3C)[C@@]12C`, in data set [3], the half-life was over 60 min. Moreover, the IC50 was found to be 1.92 µM in the data set on HeLa [1]; 0.878 µM with HeLa [2]; 9 nM against Cytochrome P450 2C19; 94 nM at Cytochrome P450 2C9; 1900 nM against Cytochrome P450 2C8. For the same compound, the result with HDFa was inactive. Further, the solubility in data set [4] is 4 µM (≈ 1.36 µg/mL); in data set [5], over 200 µM; in data set [6], 11.5 µM (≈ 3.91 µg/mL). For the same compound, the Papp A→B in data set [7] is 11.3 ×10⁻⁶ cm/s. In addition, in data set [8], the Papp B→A worked out at 1.6 ×10⁻⁶ cm/s. In data set [9], this compound returned a logD of over 3.68. The fraction unbound in data set [10] is 0.04. In data set [11], this compound returned a Drug recovery of 19%. Moreover, the inhibition at 10 µM against CYP2C8 worked out at 52.6%; against CYP2C9, 74.6%; against CYP2C19, 65.9%; at CYP3A it was 51.3%.
With `CC(=O)c1c(O)c(C)c(O)c2c1OC1=Cc3c(c(C)nn3-c3ccccn3)C(=O)[C@@]12C`, the IC50 in the data set with HeLa [1] and in the data set with HeLa [2] was over 15 µM in each case.
Regarding `CC(=O)c1c(O)c(C)c(O)c2c1OC1=Cc3c(c(C)nn3CCO)C(=O)[C@@]12C`, the IC50 in the data set with HeLa [1] and in the data set on HeLa [2] was over 15 µM throughout.
As to `CC(=O)c1c(O)c(C)c(O)c2c1OC1=CC(=O)c3c(C)nn(C)c3[C@@]12C`, the IC50 in the data set on HeLa [1] and in the data set with HeLa [2] was over 15 µM throughout.
For the compound `CC(=O)c1c(O)c(C)c(O)c2c1OC1=Cc3c(c(C)nn3C)C(=O)[C@@]12C`, the results for the IC50 with HeLa [1] and with HeLa [2] were over 15 µM and 3.91 µM, respectively.
The matching figures for `CC(=O)c1c(O)c(C)c(O)c2c1O[C@@H]1Cc3n[nH]c(C)c3C(=O)[C@]21C`: over 15 µM and over 15 µM.
In the case of `CC(=O)c1c(O)c(C)c(O)c2c1OC1=Cc3onc(C)c3C(=O)[C@@]12C`, the half-life in [3] came to 23 min. In addition, the IC50 in the data set on HeLa [1] came out at 7.15 µM; in the data set with HeLa [2] it was 2.21 µM. Further, the Activity entry in [12] is given as “Non-Toxic”. For the same compound, the solubility in data set [4] is 0.2 µM (≈ 0.0683 µg/mL); in data set [5], 37.6 µM (≈ 12.8 µg/mL); in data set [6], 1.6 µM (≈ 0.546 µg/mL). The Papp A→B in [7] is 2.2 ×10⁻⁶ cm/s. Besides, the Papp B→A in [8] was 0.2 ×10⁻⁶ cm/s. The same compound registered a logD in data set [9] of 3.32. Further, the fraction unbound in data set [10] was 0.06. The Drug recovery in [11] is 19%. Moreover, the inhibition at 10 µM came to 8.5% against CYP2C8, 15.6% at CYP2C19 and 14.7% at CYP3A.
Turning to `CC(=O)c1c(O)c(C)c(O)c2c1OC1=Cc3c(c(C)nn3CCBr)C(=O)[C@@]12C`, the IC50 in the data set with HeLa [1] and with HeLa [2] was over 15 µM in each case.
`CC(=O)C1=C(O)C=C2Oc3c(C(C)=O)c(O)c(C)c(O)c3[C@@]2(C)C1=O` [(+)-USNIC ACID]: the half-life in data set [3] came to 79.3 min. The 50% inhibitory concentration (IC50) in the data set on HeLa [1] and in the data set with HeLa [2] was over 15 µM in each case. The fraction unbound in [10] is 0.0024. The same compound showed a Drug recovery in data set [11] of 95%.
For the compound `CC(=O)c1c(O)c(C)c(O)c2c1OC1=Cc3c(c(C)nn3C(C)(C)C)C(=O)[C@@]12C`, the half-maximal inhibitory concentration (IC50) in the data set on HeLa [1] and in the data set on HeLa [2] was over 15 µM each time.
For the compound `CC(=O)c1c(O)c(C)c(O)c2c1OC1=Cc3[nH]nc(C)c3C(=O)[C@@]12C`, the IC50 in the data set on HeLa [1] was 1.36 µM; in the data set with HeLa [2] it was 0.311 µM. Also, the result in the data set with HDFa was inactive.
Take `CC(=O)c1c(O)c(C)c(O)c2c1OC1=CC(O)=C(/C(C)=N/N(C)C)C(=O)[C@@]12C`: the half-inhibitory concentration (IC50) with HeLa [1] and in the data set on HeLa [2] was over 15 µM throughout.
Regarding `COc1cccc2c1C(=O)c1c(O)c3c(c(O)c1C2=O)C[C@@](O)(C(=O)CO)C[C@@H]3O[C@H]1C[C@H](N)[C@H](O)[C@H](C)O1` [DOXORUBICIN], the IC50 is 3.33 µM with HeLa [1] and 0.429 µM in the data set with HeLa [2].

The record behind these values is ChEMBL document CHEMBL5223157, “Divergent reactivity of usnic acid and evaluation of its derivatives for antiproliferative activity against cancer cells” (Bioorg Med Chem, 2023).
